One assay has as its target T1, PDE9A isoform b (Homo sapiens, UniProt O76083).
T1 construct: they are full-length with N-terminal GST tag; GST (N); purchased BPS Biosciences 60090; host or cells: baculovirus infected Sf9 cells
The assay can be described thus: PDE enzyme activity assay (HTRF cGMP), PDE9A. Format: biochemical. Particulars: recombinant enzyme; read-out: PDE9A inhibition (IC50). (In general: Time-resolved FRET reads energy transfer from a long-lived donor to a nearby acceptor.)

Assay [1] concerns pCREB. The assay can be described thus: PDE activity in wild type primary neurons (Western blot pCREB). The note with it: Mus musculus, Neuron, 0.5 h, 30 min, EC50 = 50% increase in pCREB over basal. It counts as cell-based. A general note: Immunoblotting shows a protein as a band on a membrane.
Assay [2] concerns pCREB. The assay can be described thus: In-vivo activity, hippocampus of wild type mice: pCREB. Also on record: species or system mouse. The note with it: i.p. 40 mg/kg, hippocampus one hour later. Here is the method:
To determine the ability of the compounds to inhibit HDAC and PDE in the brain, the compound was administered to wild type mice by i.p. at a dose of 40 mg/kg (n=3). Another group of animals received the vehicle (1/1/8, v:v:v, DMSO/Tween 20/saline). One hour later, mice were sacrificed by cervical dislocation and their hippocampus was quickly dissected from the brains.
Total tissue homogenates were obtained by homogenizing the hippocampus in a cold lysis buffer with protease inhibitors (0.2 M NaCl, 0.1 M HEPES, 10% glycerol, 200 mM NaF, 2 mM Na4P2O7, 5 mM EDTA, 1 mM EGTA, 2 mM DTT, 0.5 mM PMSF, 1 mM Na3VO4 and Complete Protease Inhibitor Cocktail, Roche Diagnostics). The homogenate was then centrifuged at 14,000×g at 4° C. for 20 min and the supernatant aliquoted and stored at −80° C. Total protein concentrations were determined using the BioRad Bradford protein assay (BioRad Laboratories). Protein samples were analyzed as described in the “in vitro” section.

Assay [3] relates to phosphorylated tau (p-tau). The experiment in a line: AD-related markers in Tg2576 neurons: pTau. Format: cell-based. The note with it: Mus musculus, Neuron, 48 h, treated two days, EC50 = 50% decrease in pTau over basal.

Some results are limits rather than exact numbers.

This is an account of results in patent publication US9573956B2, “Compounds as dual inhibitors of phosphodiesterases and histone deacetylases” (FUNDACIÓN PARA LA INVESTIGACIÓN MÉDICA APLICADA, priority 2013, dated 2017).

T1 sequence (O76083 1-533 isoform O76083-2): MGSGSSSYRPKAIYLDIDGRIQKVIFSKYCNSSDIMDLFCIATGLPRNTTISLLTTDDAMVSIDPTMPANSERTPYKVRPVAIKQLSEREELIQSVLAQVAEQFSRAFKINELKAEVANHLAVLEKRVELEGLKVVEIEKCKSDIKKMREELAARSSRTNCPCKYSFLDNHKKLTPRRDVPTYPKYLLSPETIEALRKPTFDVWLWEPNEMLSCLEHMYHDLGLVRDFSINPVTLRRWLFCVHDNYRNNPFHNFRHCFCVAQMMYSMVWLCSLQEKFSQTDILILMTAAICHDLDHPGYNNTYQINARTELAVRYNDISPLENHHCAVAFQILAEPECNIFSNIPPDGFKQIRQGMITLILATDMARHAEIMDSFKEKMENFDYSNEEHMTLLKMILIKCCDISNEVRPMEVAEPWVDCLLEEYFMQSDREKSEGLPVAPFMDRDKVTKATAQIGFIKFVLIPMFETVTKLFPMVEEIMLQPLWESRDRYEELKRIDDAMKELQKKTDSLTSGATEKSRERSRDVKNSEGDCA

One may read the IC50 as the concentration needed to halve the response being measured. As for `CCCc1nn(C)c2c(=O)[nH]c(-c3cc(S(=O)(=O)N4CCN(c5ncc(C(=O)NO)cn5)CC4)ccc3OCC)nc12` [Example 1-06, 2-(4-[3-(6,7-Dihydro-1-methyl-7-oxo-3-propyl-1H-pyrazolo[4,3-d]pyrimidin-5-yl)-4-ethoxyphenylsulfonyl]piperazin-1-yl)-N-hydroxypyrimidine-5-carboxamide], on PDE9A isoform b, the IC50 is greater than 10000 nM. Moreover, the EC50 in the assay with pCREB [1] was in the range of 10 to 1000 nM. In addition, the “pCREB, increment in biological response vs basal” value in the assay with pCREB [2] was “+++ (basal×2≦(+++)<basal×3)”.

In turn, `CCCc1nn(C)c2c(=O)[nH]c(-c3cc(Cc4ccc(C(=O)NO)cc4)ccc3OCC)nc12` [Example 1-15, 4-[[4-ethoxy-3-(1-methyl-7-oxo-3-propyl-6H-pyrazolo[4,3-d]pyrimidin-5-yl)phenyl]methyl]benzenecarbohydroxamic acid] showed an EC50 in the assay on pCREB [1] of 10 to 1000 nM. Besides, the “pCREB, increment in biological response vs basal” value in the assay on pCREB [2] is listed as “+ (basal×1 means no increment (+))”.

As for `CCCc1nn(C)c2c(=O)[nH]c(-c3cc(Cc4ccc(C(=O)NO)s4)ccc3OCC)nc12` [Example 1-16], the EC50 (in the assay with pCREB [1]; in assay [3]) was 10 to 1000 nM throughout. Also, the “pCREB, increment in biological response vs basal” value in the assay with pCREB [2] is given as “+ (basal×1 means no increment (+))”.

As to `CCCc1nn(C)c2c(=O)[nH]c(-c3cc(CC4CC(C(=O)NO)C4)ccc3OCC)nc12` (racemic) [Example 1-19, 3-[[4-ethoxy-3-(1-methyl-7-oxo-3-propyl-6H-pyrazolo[4,3-d]pyrimidin-5-yl)phenyl]methyl]cyclobutanecarbohydroxamic acid], the EC50 (in the assay with pCREB [1]; in assay [3]) was 10 to 1000 nM in each case. For the same compound, the “pCREB, increment in biological response vs basal” value in the assay with pCREB [2] is on record as “+++ (basal×2≦(+++)<basal×3)”.
